For one series, the system named is Mino cells. The experiment in a line: AlamarBlue cell viability assay, Mino. The format is cell-based. The following applies: for Mino Cell Viability%: Figure 2f, 5 replicates.
The next series has as its target T1, C481S mutant BTK (Homo sapiens, UniProt Q06187, C481S).
T1 construct: expressed in transfected cells; host or cells: XLA cells (gift from Dr. Woyach)
Briefly: BTK degradation in XLA cells overexpressing C481S mutant BTK (western blot). The following applies: 24 h. The format is cell-based. The protocol:
XLA cells overexpressing wild-type BTK or mutant C481S BTK were plated at the same cell number and density as the above experiments and were treated with RC-1, IRC-1, or RNC-1 at the dose of 1.6, 8.0, 40, 200, and 1000 nM for 24 h. After completion of treatment, all the cells were collected and processed for western blot analysis.
(§1) The collected cells and spleen tissues were lysed in RIPA lysis buffer (50 mM Tris-HCl, pH 7.4, 150 mM NaCl, 1% NP-40, 0.5% sodium deoxycholate, 0.1% SDS) supplemented with Halt™ Protease and Phosphatase Inhibitor Cocktail (Thermo Fisher Scientific, Cat. No. PI78440) immediately before use. Lysates were centrifuged at 15,000 × g for 10 min at 4 °C and the supernatant was quantified for total protein concentration using the Pierce BCA Protein Assay (Thermo Fisher Scientific, Cat. No. 23225). Thirty micrograms of protein were loaded onto sodium dodecyl sulfate−polyacrylamide gel for electrophoresis (Bio-Rad) and transferred onto PVDF membranes (Millipore, Cat. No. IPVH00010). […] Imaging was performed using the ECL Prime chemiluminescent western blot detection reagents (GE Healthcare, Cat. No. RPN2232) by visualization of the blots to X-Ray film or with an Imager (Kindle Biosciences, Cat. No. D1001). All western blots were subsequently processed and quantified with Imager software. Protein level was normalized to β-actin or GAPDH loading controls.
Background: A western blot detects proteins with antibodies after separation by electrophoresis.

Series [1] relates to MOLM-14 cells. Briefly: Quantitative multiplexed (TMT) proteomics of compound-treated cells. The following applies: 200 nM, 24 h. The series is classed as cell-based, Homo sapiens. The method, then:
For proteomic study of the cellular protein profile following BTK degradation, MOLM-14 cells were treated in duplicate with 200 nM of RC-1, RNC-1, IRC-1, or RC-1-Me for 24 h, and then the cells were collected and processed for proteomics analysis (Sanford Burnham Prebys Medical Discovery Institute, La Jolla, California).
For cell lysis and protein digestion, cells were lysed with vigorous shaking (20 Hz for 10 min at room temperature by Retsch MM301 instrument) in 0.5 mL of lysis buffer (8 M urea, 50 mM ammonium bicarbonate (ABC); plus Benzonase 24U/100 ml), and extracted proteins were centrifuged at 14,000 × g for 10 min to remove cellular debris. Supernatant protein concentration was determined using a bicinchoninic acid (BCA) protein assay. Following quantification, the proteins were digested in solution. First, protein disulfide bonds were reduced with 5 mM tris(2-carboxyethyl)phosphine (TCEP) at 30 °C for 60 min, alkylated (carbamidomethylated) with 15 mM iodoacetamide (IAA) in the dark at room temperature for 30 min. Urea was then diluted to 1 M urea using 50 mM ammonium bicarbonate, and proteins were subjected to overnight digestion with mass spec grade Trypsin/Lys-C mix. Following digestion, samples were acidified with formic acid (FA) and subsequently desalted using Waters Sep-Pak C18. Cartridges were sequentially conditioned with 100% acetonitrile (ACN) and 0.1% FA, samples were then loaded, washed with 0.1% FA, and peptides eluted with 60% ACN, 0.1% FA. Finally, the organic solvent was removed in a SpeedVac concentrator prior to LC-MS/MS analysis.
Prior to TMT labeling, sample peptide amount was quantified using a NanoDrop^TM spectrophotometer (ThermoFisher). Samples were labeled according to the table schematic shown below using our TMT protocol. Briefly, a normalized amount of peptides sample was resuspended in 200 mM HEPES pH 8, and then labeled with one of the TMT10-plex reagents for 1 h at room temperature. TMT labels/channels were as follows:
Reactions were quenched with 5% hydroxylamine solution. The 10 samples were then combined, dried down in a SpeedVac system, resuspended in 0.1% FA, and desalted as described above. After desalting, the organic solvent was removed in a SpeedVac concentrator.
Dried samples were reconstituted in 20 mM ammonium formate pH ~10, and fractionated by high pH reverse phase using a Waters Acquity CSH C18 2.1-µm 1 × 150 mm column mounted on an M-Class Ultra Performance Liquid Chromatography (UPLC) system (Waters corp., Milford, MA). […] A total of 36 fractions were collected and pooled in a non-contiguous manner into 18 total fractions: 1 + 19, 2 + 20, 3 + 21, 4 + 22, 5 + 23, 6 + 24, 7 + 25, 8 + 26, 9 + 27, 10 + 28, 11 + 29, 12 + 30, 13 + 31, 14 + 32, 15 + 33, 16 + 34, 17 + 35, and 18 + 36. Pooled fractions were dried to completeness in a SpeedVac concentrator.
Dried fractions were reconstituted with 2% ACN-0.1% FA and analyzed by LC-MS/MS using a nanoACQUITY system (Waters) coupled to an Orbitrap Fusion Lumos mass spectrometer (Thermo Fisher Scientific). […] The mass spectrometer was operated in positive data-dependent acquisition mode. MS1 spectra were measured in the Orbitrap with a resolution of 60,000 (AGC target: 4e5; maximum injection time: 50 ms; mass range: from 350 to 1500 m/z). The instrument was set to run in top speed mode with 3 s cycles for the survey and the MS/MS scans. After a survey scan, tandem MS was performed in the Ion Routing Multipole HCD-Cell on the most abundant precursors by isolating them in the quadrupole (Isolation window: 0.7 m/z; charge state: +2–7; collision energy: 35%). […] The dynamic exclusion was set to 20 s with a 10-ppm mass tolerance around the precursor and its isotopes.
For data analysis, all mass spectra were analyzed with MaxQuant software version 1.5.5.1. MS/MS spectra were searched against the Homo sapiens Uniprot protein sequence database (version January 2018) and GPM cRAP sequences (commonly known protein contaminants). […]

In series [2] the test system is BTK, pBTK, IKZF1, and IKZF3. Briefly: Degradation of BTK, pBTK, IKZF1 and IKZF3 in Mino cells (western blot). The series is classed as cell-based. The protocol: as §1
Series [3] concerns MOLM-14 cells. The experiment in a line: AlamarBlue cell viability assay, MOLM-14. The following applies: for MOLM-14 Cell Viability%: Figure 2f, 5 replicates. A general note: Resazurin is reduced to fluorescent resorufin, in cell work by metabolically active cells.
Protocol: The IC50 was calculated using GraphPad Prism software with a four-parameter dose-response curve fit.

Where “and” joins values, the source holds several entries; their conditions need not be identical. Identical values can stand only once. Entries after “also recorded” stand apart in the source; their conditions may differ. Like-named read-outs stand apart in the source and are kept apart here.

T1 sequence (Q06187 whole entry C481S): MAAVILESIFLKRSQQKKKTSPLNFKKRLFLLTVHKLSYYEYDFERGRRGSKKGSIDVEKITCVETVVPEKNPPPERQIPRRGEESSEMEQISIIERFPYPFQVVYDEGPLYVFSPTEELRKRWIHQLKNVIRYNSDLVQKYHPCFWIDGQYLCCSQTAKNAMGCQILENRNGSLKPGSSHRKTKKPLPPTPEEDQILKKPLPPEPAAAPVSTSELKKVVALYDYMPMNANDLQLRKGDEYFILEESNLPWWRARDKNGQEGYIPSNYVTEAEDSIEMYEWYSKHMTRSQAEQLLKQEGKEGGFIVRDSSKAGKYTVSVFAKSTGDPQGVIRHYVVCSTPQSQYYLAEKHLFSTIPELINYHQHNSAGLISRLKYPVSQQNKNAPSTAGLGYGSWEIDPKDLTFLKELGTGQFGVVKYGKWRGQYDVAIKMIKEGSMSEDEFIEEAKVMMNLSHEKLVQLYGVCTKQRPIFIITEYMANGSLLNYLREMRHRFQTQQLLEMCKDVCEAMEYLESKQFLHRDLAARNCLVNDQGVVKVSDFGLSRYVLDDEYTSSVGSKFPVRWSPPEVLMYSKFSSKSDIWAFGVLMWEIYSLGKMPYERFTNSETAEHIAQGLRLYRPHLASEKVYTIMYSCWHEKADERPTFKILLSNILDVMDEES

For orientation: IC50 means the concentration at which inhibition is half-maximal. Take `CN(CCCNC(=O)CNc1cccc2c1C(=O)N(C1CCC(=O)NC1=O)C2=O)C(C)(C)C=C(C#N)C(=O)N1CCC[C@@H](n2nc(-c3ccc(Oc4ccccc4)cc3)c3c(N)ncnc32)C1` (stereo partly drawn) [RC-1]: the “Mino Cell Viability%” value in the series with Mino cells (1.00E-06 M) was 28.3764% and 24.0469% and 29.6497% and 18.1013% and 27.4262%; in the series on Mino cells (1.60E-09 M), 86.471% and 91.0355% and 88.9002% and 84.3749% and 77.1755%; with Mino cells (2.00E-07 M) it was 40.1501% and 37.7601% and 35.1644% and 26.339% and 31.6381%; in the series with Mino cells (3.20E-10 M) it was 96.9028% and 99.5475% and 70.4757% and 81.6714% and 61.4054%; in the series on Mino cells (4.00E-08 M), 90.2127% and 74.3055% and 49.5631% and 47.134% and 61.6895%; in the series with Mino cells (5.00E-06 M), 17.0239% and 17.5724% and 29.8456% and 19.8449% and 25.2419%. In addition, in the series on Mino cells (8.00E-09 M), the “Mino Cell Viability%” value is 98.4014% and 91.3588% and 67.7918% and 72.9048% and 65.2157%. The IC50 worked out at 0.08 µM in the series on Mino cells (Homo sapiens, Mino cells, 72 h, Alamar Blue); 0.3 µM in the series on MOLM-14 cells [3] (Homo sapiens, MOLM-14, 72 h, read-out: Cell viability IC50, MOLM-14 cells, 72 h, Alamar Blue); 0.31 µM in the series with MOLM-14 cells [3] (read-out: Cell viability IC50, MOLM-14 cells, 72 h, Alamar Blue). Also, the “BTK degradation (in words)” value on C481S mutant BTK is “dose-dependent BTK degradation; also recorded: degrades both wild-type BTK and the C481S mutant with similar potency”. Besides, the “degradation of IMiD-dependent substrates IKZF1, ZFP91, ZNF692” value with MOLM-14 cells [1] is recorded as “specifically degraded”. The “kinases degraded (proteomics)” value in the series on MOLM-14 cells [1] was “only two kinases (BTK and CSK) can be degraded; also recorded: only degrades BTK and CSK”. Also, the “degradation of BTK, pBTK, IKZF1, IKZF3 (in words)” value in series [2] was “induced degradation of BTK, pBTK, IKZF1, and IKZF3; also recorded: can degrade not only BTK and phosphorylated BTK but also IKZF1 and IKZF3”. Besides, the “MOLM-14 Cell Viability%” value in the series with MOLM-14 cells [3] (1.00E-05 M) was 9.063% and 7.786% and 9.631% and 4.44% and 5.17%; in the series on MOLM-14 cells [3] (1.60E-08 M), 88.4631% and 84.0227% and 77.0073% and 72.5061% and 64.8418%; with MOLM-14 cells [3] (2.00E-06 M), 14.0511% and 10.5434% and 12.6318% and 8.942% and 10.7462%; with MOLM-14 cells [3] (3.20E-09 M) it was 89.923% and 89.9432% and 89.2741% and 70.2555% and 64.2336%; in the series with MOLM-14 cells [3] (4.00E-07 M), 53.7916% and 40.7948% and 45.6813% and 36.6383% and 39.4972%; in the series on MOLM-14 cells [3] (6.40E-10 M), 94.6269% and 96.3301% and 81.3058% and 78.386% and 72.2831%. Besides, the “MOLM-14 Cell Viability%” value with MOLM-14 cells [3] (8.00E-08 M) is 69.5864% and 88.0779% and 68.3495% and 63.8078% and 82.5426%.
